Data on two compounds can be found in article PMC8266241, “Tetralone derivatives are MIF tautomerase inhibitors and attenuate macrophage activation and amplify the hypothermic response in endotoxemic mice” (Journal of Enzyme Inhibition and Medicinal Chemistry, 2021).

Where two headings read alike, the source gives them in different places.

Test [1] addresses T1, recombinant human MIF (Homo sapiens, UniProt P14174).
T1 construct: purchased ATGen Co. Ltd., Seoul, Republic of Korea
T1 sequence (P14174 2-115 limits assumed): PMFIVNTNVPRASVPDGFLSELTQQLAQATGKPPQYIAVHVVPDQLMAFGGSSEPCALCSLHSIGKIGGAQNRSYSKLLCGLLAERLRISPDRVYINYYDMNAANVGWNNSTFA
The arrangement: method as in PMID 15778121. The conditions noted are these: reference inhibitor; read-out: ketonase IC50 of reference inhibitor; cited from earlier work.

Test [2] concerns the target T1, recombinant human MIF. The arrangement: method as in PMID 15778121. Conditions: reference inhibitor; read-out: enolase IC50 of reference inhibitor; cited from earlier work.
In test [3] the test system is RAW264.7 cells. As to the kind of experiment: ROS production in LPS-induced macrophages (DHR123). Type of test: cell-based, mouse. Conditions: 20 µM pre-treatment, 1 µg/ml LPS 24 h, vs LPS-activated cells. The protocol:
(§1) In cell culture experiments, we used RAW264.7 mouse monocyte/macrophage cell line (ECACC, Salisbury, UK; passage number: 8–15) and RAW-Blue™ cells (Invivogen, Toulouse France, passage number: 10–14). RAW264.7 and RAW-Blue™ cells were cultured in 5% CO2 at 37 °C in endotoxin-tested Dulbecco’s Modified Eagle’s Medium (high glucose, 4.5 g/L, 2 mM L-glutamine; Corning, Corning Incorporated Costar, Corning, NY) supplemented with 10% FBS. For culturing RAW-Blue™ cells, we also added 100 µg/ml normocin and 200 µg/ml zeocin to the medium. The day before the experiments, cells were plated onto 24- or 96-well plates and cultured overnight. […] The freshly synthesised tetralone derivatives were dissolved in DMSO and applied in 20 µM concentration as a pre-treatment, added 30 min before LPS induction. To exclude the effects of vehicle, both CTRL and LPS-treated cells received the same amount of DMSO.
To measure the amount of reactive oxygen species we seeded RAW264.7 cells onto 96-well plates in a density of 10^5cells/well. Cells were treated with the tetralones as a pre-treatment and they were induced with 1 µg/ml LPS for 24 h. Then 2 µM dihydrorhodamine123 (DHR123; Life Technologies, Carlsbad, CA) fluorescent dye was added and incubated for an additional 2 h. Fluorescent intensity of the dye (excitation 490 nm/emission 510–570 nm) was measured with Glomax Multi Detection System (Promega®, Madison, WI, USA).

In test [4] the target is T1, recombinant human MIF. Put plainly: Tautomerase assay: enol-keto tautomeric conversion of phenylpyruvate (ketonase reaction). It counts as biochemical. The method, then:
The enol-keto tautomeric conversion of phenylpyruvate (ketonase reaction) was assessed at room temperature by monitoring the decrease in absorbance at 288 nm on a dual path Shimadzu 2100 UV spectrophotometer (Shimadzu, Kyoto, Japan) according to Taylor et al.[55] with minor modifications. Briefly, the 0.72 ml reaction mixture consisted of the enzyme at a final concentration of 0.4 µg/ml and the substrate in a 50 mM sodium phosphate buffer (pH = 6.5). The phenylpyruvate substrate was dissolved fresh in absolute ethanol to yield a final concentration of 100 µM. The reaction was monitored for 75 s at room temperature. A recombinant human MIF (from ATGen Co. Ltd., Seoul, Republic of Korea) was used as the enzyme source. Inhibitors were dissolved fresh in ethanol or DMSO. […] The compounds were diluted to achieve final concentrations of 200, 100, 50, 20, 5, 1, and 0.5 µM in the reaction mixture. All data presented have been derived from consonant measurements repeated at least three times. […] The areas under the curves obtained with and without the inhibitors were used to compare the conversion rates of the substrate.

The next test deals with IL-6 in RAW264.7 cells. Put plainly: IL-6 production, ELISA. The conditions noted are these: 20 µM pre-treatment, 1 µg/ml LPS 24 h. It counts as cell-based, mouse. The method, then:
as §1, with “To exclude the effects of vehicle, both CTRL and LPS-treated cells received the same amount of DMSO.” left out
(§2) For cytokine concentration measurements, RAW264.7 cells were cultured in 24-well plates at a density of 5*10^5 cells/well and treated with tetralones (pre-treatment, 20 µM) and with 1 µg/ml LPS for 24 h. TNF-α, IL-6 and CCL-2 levels were determined from the culturing media by using Ready-Set-Go ELISA kits (eBioscience, San Diego, CA, USA) for TNF-α and IL-6 detection and mouse CCL-2 uncoated ELISA-kit (Invitrogen, Vienna, Austria) for CCL-2 determination. ELISA-kits were applied as provided by the protocol of the manufacturer, the optical density was measured at 450 nm.
A general note: In an ELISA, binding on a coated surface is turned into a signal by an enzyme label.

The subject of test [5] is RAW264.7 cells. As to the kind of experiment: Nitrite production in LPS-induced macrophages (Griess reagent). Conditions: 20 µM pre-treatment, 1 µg/ml LPS 24 h, vs LPS-activated cells. It counts as cell-based, mouse. The protocol:
as §1
For nitrite measurements, we applied the same culturing conditions, treatments, and equipment as described above. After 24 h of incubation, 50 µl medium was removed and added to equal amount of Griess reagent (Sigma-Aldrich, St. Louis, MO, USA) in 96-well plate. The optical density was measured at 550 nm wavelength.

Test [6] concerns the target T1, recombinant human MIF. As to the kind of experiment: Tautomerase assay: keto-enol tautomeric conversion of phenylpyruvate (enolase activity). Type of test: biochemical. The conditions noted are these: keto-enol conversion of phenylpyruvate; read-out: Inhibition of enolase (IC50).
Test [7] has as its system NF-κB activation in RAW-Blue™ cells. Put plainly: NF-κB activation reporter assay (QUANTI-Blue). Type of test: cell-based, mouse. The conditions noted are these: 20 µM pre-treatment, 1 µg/ml LPS 24 h, vs LPS-activated cells. The method, then:
as §1
The detection of NF-κB activation was accomplished by using RAW-Blue™ cells. RAW-Blue™ cells are genetically modified RAW264.7 macrophages, which are able to secrete embryonic alkaline phosphatase (EAP) upon LPS induction and following NF-κB activation. The levels of EAP can be examined using QUANTI-Blue™ detection medium.
RAW-Blue™ cells were seeded into 96-well plate at a density of 10^5cells/well. Cells were treated with tetralones (pre-treatment, 20 µM) and with 1 µg/ml LPS. 24 h after LPS treatment 20 µl medium was removed and incubated with 100 µl QUANTI-Blue™ detection medium (Invivogen; Toulouse, France) in 96-well plates. The optical density was measured at 600 nm.
(Reporter assays use an easily measured gene product as a stand-in for the process of interest.)

Another test relates to TNF-α in RAW264.7 cells. Put plainly: TNF-α production, ELISA. It counts as cell-based, mouse. The conditions noted are these: 20 µM pre-treatment, 1 µg/ml LPS 24 h. The protocol:
as §1, with “To exclude the effects of vehicle, both CTRL and LPS-treated cells received the same amount of DMSO.” left out
as §2

What is called IC50 is the concentration needed to halve the response being measured. Take `O=C(O)/C=C/c1ccc(O)c(O)c1` [caffeic acid]: the IC50 at recombinant human MIF [1] was 0.5 µM; on recombinant human MIF [2], 2 µM.

For the compound `O=C1/C(=C/c2ccncc2)CCc2ccccc21` [Compound 26], the “decrease in ROS concentrations” value in the test on RAW264.7 cells [3] was approximately 20%. Besides, the IC50 was 21 ± 6.9 µM on recombinant human MIF [4] (enol-keto conversion of phenylpyruvate, 100 µM substrate, pH 6.5, read-out: Inhibition of ketonase (IC50)) and 209 ± 77 µM at recombinant human MIF [6]. In addition, on recombinant human MIF [4] (selectivity for ketonase), the IC50enolase/IC50ketonase stood at 10. Also, the “effect on IL-6 production” value in the test on IL-6 in RAW264.7 cells is “had the most dominant effect”. Further, the lower nitrite concentrations with RAW264.7 cells [5] is recorded as approximately 50%. The “effect on NF-κB activation” value in test [7] was “slight, but statistically significant inhibitory effect”. Further, the “effect on TNF-α production” value in the test on TNF-α in RAW264.7 cells is listed as “reduced TNF-α production”.
